Measured values published in patent publication US9884046B1, “Method of treating lung cancer” (Macau University of Science and Technology, priority 2017, dated 2018).

Columns and labels:
KRAS = KRAS (Homo sapiens, UniProt P01116); assay: Bio-layer interferometry, His-KRAS on Ni-NTA biosensors; type: binding; details: BLI
Experimental: The interaction between KRAS and compound 0375-0604 was determined by bio-layer interferometry using an Octet Red 96 instrument (FortéBio Inc.). Ni-NTA Biosensors tips (FortéBio, Inc., Menlo Park, Calif.) were prewetted with PBS to establish a baseline before immobilization. His-KRAS was then immobilized onto Ni-NTA Biosensors. The experiments comprised five steps: (1) baseline acquisition, (2) KRAS loading onto the sensor, (3) second baseline acquisition, (4) association of compound 0375-0604 for the measurement of kon, and (5) dissociation of compound 0375-0604 for the measurement of koff. Six concentrations of compound 0375-0604 were used for detection. The association and dissociation plot and kinetic constants were obtained with FortéBio data analysis software. Equilibrium dissociation constants (Kd) were calculated in the ratio of koff to kon.
Bio-layer interferometry assay (BLI), a label-free technology, was used to measure the biomolecular interaction between KRAS and compound 0375-0604. In this study, the His-labeled KRAS protein was immobilized on the Ni-NTA (NTA) Biosensors. […] Experimental data for association and dissociation are represented on the left and right side.

H358 cells [1] = assay: MTT cell viability assay, H358; type: cell-based; details: Homo sapiens, NCI-H358, H358 (KRAS G12C)
Experimental: (§1) H2122, H460 and H358 cells were purchased from ATCC and cultivated with Roswell Park Memorial Institute (RPMI) 1640 medium supplemented with 10% fetal bovine serum (Gibco, Big Cabin, Oklahoma, Me., USA), 100 U/mL penicillin and 100 μg/mL streptomycin (Gibco, Big Cabin, Oklahoma, Me., USA). All the cells were cultivated at 37° C. with 5% CO2 incubator. Cells were seeded on a 96-well microplate with 3000, 4000 or 5000 cells/well, and were cultured overnight for cell adhesion. Different concentrations of compound 0375-0604 were added to the microplates, and the plates were incubated for 24, 48 or 72 h. Each dosage was repeated as triplicate. 10 μL MTT (5 mg/mL) solution was added to every well. After incubation for 4 h, 100 μL dimethyl sulfoxide (DMSO) was added to each well. After shaking for 15 min, the absorbance of the plate was measured at 570 nm (absorbance) and 650 nm (reference) by a microplate reader (Tecan, Morrisville, N.C., USA).
(§2) The cytotoxicity of compound 0375-0604 was determined by MTT assay. The effect of compound 0375-0604 on three NSCLC cell lines, H2122, H358 and H460 was examined. H2122, H358 and H460 are harboring KRAS-activating mutations. H2122 and H358 cells have mutant KRAS that includes an amino acid substitution from a glycine to a cysteine at codon or position 12 (i.e. mutant KRAS ^G12C). H460 cells have mutant KRAS that includes an amino acid substitution from a glutamine to a histidine at codon or position 61 (i.e. mutant KRAS Q61H).
(§3) Cells were incubated with compound 0375-0604 at different concentrations (0, 25, 50, 100 μM) for 24, 48, and 72 h. As shown in FIGS. 3A-3C, the cell viability of three NSCLC cell lines was decreased by the treatment of compound 0375-0604 in a dose-dependent and time-dependent manner.

H2122 cells = assay: MTT cell viability assay, H2122; type: cell-based; details: Homo sapiens, NCI-H2122, H2122 (KRAS G12C)
Experimental: as §1, §2, §3

H460 cells = assay: MTT cell viability assay, H460; type: cell-based; details: Homo sapiens, NCI-H460, H460 (KRAS Q61H)
Experimental: as §1, §2, §3

[2] = system: phosphorylation of CRAF (p-CRAF); assay: Western blot of KRAS downstream signaling; type: cell-based; details: H2122, H460 and H358 cells, 24, 48 and 72 h, versus untreated cells
Experimental: After treatment with compound 0375-0604 for 24 h, 48 h or 72 h, radioimmunoprecipitation assay (RIPA) lysis buffer which contains protease and phosphatase inhibitors, was added to extract the whole cell protein. Bio-Rad DC™ protein assay kit (Bio-Rad, Philadelphia, Pa., USA) was used to quantify the protein. 30 μg protein lysate were loaded and separated by 10% sodium dodecyl sulfate (SDS)-polyacrylamide gel electrophoresis and transferred to a nitrocellulose (NC) membrane. The membranes were incubated with the primary antibody (1:2000) and then with a fluorescence-conjugated secondary antibody (1:10000). Glyceraldehyde 3-phosphate dehydrogenase (GAPDH) was used as the loading control for normalization. The signal of the membranes was scanned with a LI-COR Odyssey Scanner (Belfast, Me., USA).
Untreated cells were used as control.

GTP-bound KRAS = assay: RAS-binding domain pull-down (RBD:PD) assay; type: cell-based; details: H358 cells, 24 h, 50 and 100 μM
Experimental: RAS activity was detected using the RAS Activation Assay Kit from Upstate-Millipore. The whole cell lysates were incubated with Glutathione S-transferase-[…]-binding domain (GST-RBD) and glutathione beads for 1 h. Agarose beads were pelleted by centrifugation and washed 3 times with Mg^2+ lysis buffer. Agarose beads were re-suspended in loading buffer. Samples were analyzed by the western blotting as previously described and blots probed using anti-KRAS antibody (sc-30, SANTA).
KRAS mutant cells (H358) were treated with compound 0375-0604 for 24 h. After 24 h treatment, cells were collected and determined by a RAS-binding domain pull-down (RBD:PD) assay and immunoblotting with a KRAS-specific antibody.

H358 cells [3] = assay: Cell cycle analysis by PI staining and flow cytometry; type: cell-based; details: H358 cells, 50, 100 μM, 24 h
Experimental: H358 cells were plated with 2.0×10^5 cells/well at a 6-well plate and cultured overnight for attachment. After treatment with compound 0375-0604 at 0, 50, 100 μM for 24 h, all cells were harvested by trypsin, and centrifuged at 1000 rpm, at room temperature for 5 min. Cells pellets were re-suspended in 70% ethanol at 4° C. for 30 min. Cells were centrifuged at 1000 rpm for 5 min to remove all the ethanol. Each cell pellet was re-suspended in 300 μL Propidium iodide (PI) staining solution at 37° C. for 30 min in the dark. The cells were then washed twice with phosphate-buffered saline (PBS). Finally, cells were re-suspended in 300 μL PBS and transferred to the flow cytometer (BD FACS Aria III).
H358 cells were treated with compound 0375-0604 at different concentrations (0, 50, 100 μM) for 24 h, and stained with Propidium iodide (PI). The samples were analyzed by flow cytometry.

KRAS, sequence (P01116 1-188 isoform P01116-2): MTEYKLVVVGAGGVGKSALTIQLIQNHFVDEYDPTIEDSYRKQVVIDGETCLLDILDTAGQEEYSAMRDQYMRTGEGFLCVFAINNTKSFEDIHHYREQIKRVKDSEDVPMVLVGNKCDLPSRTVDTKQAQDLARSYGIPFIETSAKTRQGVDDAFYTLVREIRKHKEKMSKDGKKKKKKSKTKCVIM

Nc1ccc(Sc2nc3ccccc3s2)c(Cl)c1 [compound 0375-0604]
koff (KRAS; 1.56-50 μM compound): 2.12E-01 S^−1 | kon (KRAS; 1.56-50 μM compound): 1.83E+04 M^−1 S^−1 | Kd (KRAS; calculated as ratio of koff to kon): 11.6 µM | IC50 (H358 cells [1]; 24 h): > 100 µM | IC50 (H358 cells [1]; 48 h): > 100 µM | IC50 (H358 cells [1]; 72 h): 63.8 ± 3.89 µM | IC50 (H2122 cells; 24 h): > 100 µM | IC50 (H2122 cells; 48 h): > 100 µM | IC50 (H2122 cells; 72 h): 39.6 ± 3.09 µM | IC50 (H460 cells; 24 h): > 100 µM | IC50 (H460 cells; 48 h): 100 ± 13.3 µM | IC50 (H460 cells; 72 h): 66 ± 11.8 µM | level of phosphorylation of CRAF (p-CRAF) [2]: decreased | level of GTP-bound KRAS (GTP-bound KRAS): inhibited | percentage of cells in G0/G1 phase (H358 cells [3]): slightly decreased | percentage of cells in G2/M phase (H358 cells [3]): increased
